Measurements from ChEMBL document CHEMBL1138371, “Discovery of low nanomolar non-hydroxamate inhibitors of tumor necrosis factor-alpha converting enzyme (TACE)” (Bioorg Med Chem Lett, 2007).

Tests used:
[1] = molecular target: Stromelysin-1 (Homo sapiens, UniProt P08254); experiment: Inhibition of MMP3
[2] = molecular target: T1, Matrilysin (Homo sapiens, UniProt P09237); experiment: Inhibition of MMP7
T1 sequence (P09237 whole entry): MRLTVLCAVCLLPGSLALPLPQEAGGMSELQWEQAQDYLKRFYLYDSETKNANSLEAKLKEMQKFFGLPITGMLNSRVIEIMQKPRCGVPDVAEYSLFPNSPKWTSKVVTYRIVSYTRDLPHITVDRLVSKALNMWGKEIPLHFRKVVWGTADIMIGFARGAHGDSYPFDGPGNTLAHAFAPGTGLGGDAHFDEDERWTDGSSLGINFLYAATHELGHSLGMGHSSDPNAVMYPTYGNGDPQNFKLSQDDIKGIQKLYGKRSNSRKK

[3] = tested on: Blood; experiment: Inhibition of LPS-stimulated TNFalpha production in human whole blood; format: functional, tissue-based
[4] = molecular target: Disintegrin and metalloproteinase domain-containing protein 17 (Sus scrofa, UniProt O77636); experiment: Inhibition of porcine TACE
Sequence of Disintegrin and metalloproteinase domain-containing protein 17 (O77636 whole entry, the tested form may be a part): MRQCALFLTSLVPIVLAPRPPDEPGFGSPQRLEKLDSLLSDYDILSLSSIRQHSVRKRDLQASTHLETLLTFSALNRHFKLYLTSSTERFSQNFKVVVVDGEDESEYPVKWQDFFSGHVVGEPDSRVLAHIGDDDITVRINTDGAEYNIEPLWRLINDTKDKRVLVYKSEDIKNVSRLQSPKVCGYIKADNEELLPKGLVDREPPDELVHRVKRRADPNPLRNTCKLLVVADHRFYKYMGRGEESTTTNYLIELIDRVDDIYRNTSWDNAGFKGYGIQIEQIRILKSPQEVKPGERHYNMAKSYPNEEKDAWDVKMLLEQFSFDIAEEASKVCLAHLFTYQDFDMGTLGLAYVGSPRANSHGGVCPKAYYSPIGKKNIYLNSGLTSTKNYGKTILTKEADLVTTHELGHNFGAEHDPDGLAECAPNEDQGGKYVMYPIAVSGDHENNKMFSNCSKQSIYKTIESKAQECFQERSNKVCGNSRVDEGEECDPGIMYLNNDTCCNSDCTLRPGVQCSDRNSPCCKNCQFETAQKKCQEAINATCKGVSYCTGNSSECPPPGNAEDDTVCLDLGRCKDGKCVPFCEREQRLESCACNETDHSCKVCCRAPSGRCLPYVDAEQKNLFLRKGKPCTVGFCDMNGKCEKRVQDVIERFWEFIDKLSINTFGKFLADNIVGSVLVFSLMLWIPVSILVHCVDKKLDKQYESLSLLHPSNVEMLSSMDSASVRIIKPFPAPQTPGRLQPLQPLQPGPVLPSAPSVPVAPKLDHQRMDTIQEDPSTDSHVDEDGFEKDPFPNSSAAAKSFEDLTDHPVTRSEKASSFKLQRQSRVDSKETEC

[5] = species: Homo sapiens; experiment: Inhibition of aggrecanase at 1 uM
[6] = molecular target: 72 kDa type IV collagenase (Homo sapiens, UniProt P08253); experiment: Inhibition of MMP2
Sequence of 72 kDa type IV collagenase (P08253 whole entry): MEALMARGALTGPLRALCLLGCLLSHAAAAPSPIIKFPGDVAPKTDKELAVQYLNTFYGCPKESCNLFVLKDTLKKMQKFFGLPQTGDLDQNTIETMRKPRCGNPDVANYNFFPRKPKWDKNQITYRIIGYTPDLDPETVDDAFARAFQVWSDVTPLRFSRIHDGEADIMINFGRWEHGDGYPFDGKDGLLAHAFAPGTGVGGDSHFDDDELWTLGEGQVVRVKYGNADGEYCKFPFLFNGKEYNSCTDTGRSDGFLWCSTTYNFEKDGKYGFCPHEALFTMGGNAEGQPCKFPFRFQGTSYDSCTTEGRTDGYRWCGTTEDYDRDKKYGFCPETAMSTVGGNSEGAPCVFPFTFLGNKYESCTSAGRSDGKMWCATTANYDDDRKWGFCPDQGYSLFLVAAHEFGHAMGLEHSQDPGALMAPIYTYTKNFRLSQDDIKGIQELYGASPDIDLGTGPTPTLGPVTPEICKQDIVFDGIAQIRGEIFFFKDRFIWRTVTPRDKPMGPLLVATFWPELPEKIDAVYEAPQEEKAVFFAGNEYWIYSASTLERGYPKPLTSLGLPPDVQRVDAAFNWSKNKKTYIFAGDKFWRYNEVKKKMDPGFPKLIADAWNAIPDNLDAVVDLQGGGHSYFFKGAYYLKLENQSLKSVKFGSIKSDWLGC

[7] = molecular target: Macrophage metalloelastase (Homo sapiens, UniProt P39900); experiment: Inhibition of MMP12
Sequence of Macrophage metalloelastase (P39900 whole entry): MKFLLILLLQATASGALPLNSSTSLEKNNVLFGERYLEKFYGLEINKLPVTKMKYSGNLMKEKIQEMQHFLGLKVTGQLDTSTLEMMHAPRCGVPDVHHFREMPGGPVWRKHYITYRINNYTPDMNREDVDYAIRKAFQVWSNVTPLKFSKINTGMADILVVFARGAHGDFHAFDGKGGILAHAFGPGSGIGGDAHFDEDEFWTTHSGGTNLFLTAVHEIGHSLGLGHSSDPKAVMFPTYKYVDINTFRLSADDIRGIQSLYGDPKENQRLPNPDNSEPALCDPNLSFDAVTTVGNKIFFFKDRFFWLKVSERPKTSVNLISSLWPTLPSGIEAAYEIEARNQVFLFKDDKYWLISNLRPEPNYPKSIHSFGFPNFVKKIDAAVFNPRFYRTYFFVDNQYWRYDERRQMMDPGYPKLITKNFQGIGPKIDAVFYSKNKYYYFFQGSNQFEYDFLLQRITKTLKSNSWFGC

[8] = molecular target: Collagenase 3 (Homo sapiens, UniProt P45452); experiment: Inhibition of MMP13

Sequence of Stromelysin-1 (P08254 whole entry): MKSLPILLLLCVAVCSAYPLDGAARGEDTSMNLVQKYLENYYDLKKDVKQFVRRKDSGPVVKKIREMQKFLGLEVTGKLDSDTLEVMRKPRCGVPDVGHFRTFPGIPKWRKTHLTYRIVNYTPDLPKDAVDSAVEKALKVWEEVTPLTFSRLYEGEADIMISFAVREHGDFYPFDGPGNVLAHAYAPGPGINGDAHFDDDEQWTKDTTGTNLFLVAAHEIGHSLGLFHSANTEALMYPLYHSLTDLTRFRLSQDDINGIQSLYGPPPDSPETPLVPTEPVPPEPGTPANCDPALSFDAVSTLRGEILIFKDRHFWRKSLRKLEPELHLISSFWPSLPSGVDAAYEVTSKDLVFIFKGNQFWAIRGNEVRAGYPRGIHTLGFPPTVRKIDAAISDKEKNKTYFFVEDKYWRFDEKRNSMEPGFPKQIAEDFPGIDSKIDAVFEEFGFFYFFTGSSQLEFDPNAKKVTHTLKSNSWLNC

| Structure (SMILES) | Ki [1] | Ki [2] | IC50 [3] | IC50 [4] | inhibition [5] | Ki [6] | Ki [7] | Ki [8] |
| --- | --- | --- | --- | --- | --- | --- | --- | --- |
| Cc1cc(COc2ccc(C(=O)NCC3(C4CCN(C(=O)OC(C)(C)C)CC4)C(=O)NC(=O)NC3=O)cc2)c2ccccc2n1 | > 4.5 µM | > 6.37 µM | 35 µM | 0.047 µM | 0% | > 3.33 µM | > 6.02 µM |  |
| Cc1cc(COc2ccc(C(=O)NCC3(N4CCN(C)CC4)C(=O)NC(=O)NC3=O)cc2)c2ccccc2n1 | > 4.5 µM | > 6.37 µM | > 50 µM | 0.058 µM | 21% | > 3.33 µM | > 6.02 µM |  |
| Cc1cc(COc2ccc(C(=O)NCC3(C4CCNCC4)C(=O)NC(=O)NC3=O)cc2)c2ccccc2n1 | > 4.5 µM | > 6.37 µM | 48.7 µM | 0.055 µM | 1% | > 3.33 µM | > 6.02 µM |  |
| Cc1cc(COc2ccc(C(=O)NC3(C)C(=O)NC(=O)NC3=O)cc2)c2ccccc2n1 |  |  |  | > 100 µM |  |  |  |  |
| Cc1cc(COc2ccc(C(=O)NCC3(N4CCN(C(=O)c5cccnc5)CC4)C(=O)NC(=O)NC3=O)cc2)c2ccccc2n1 | > 4.5 µM | > 6.37 µM | 43 µM | 0.01 µM | 36% | > 3.33 µM | 4.64 µM |  |
| C#CCN1CCN(C2(CNC(=O)c3ccc(OCc4cc(C)nc5ccccc45)cc3)C(=O)NC(=O)NC2=O)CC1 | > 4.5 µM | > 6.37 µM | > 50 µM | 0.062 µM | 26% | > 3.33 µM | > 6.02 µM |  |
| Cc1cc(COc2ccc(C(=O)NC3CN(C(=O)c4cccnc4)CC34C(=O)NC(=O)NC4=O)cc2)c2ccccc2n1 (stereo not drawn) | > 4.5 µM | > 6.37 µM | 18.4 µM | 0.029 µM | 17% | > 3.33 µM | 0.13 µM | 1.31 µM |
| Cc1cc(COc2ccc(C(=O)NCC3(C(C)C)C(=O)NC(=O)NC3=O)cc2)c2ccccc2n1 | > 4.5 µM | > 6.37 µM | > 50 µM | 0.019 µM | 11% | 0.93 µM | > 6.02 µM |  |
| Cc1cc(COc2ccc(C(=O)NC3COCC34C(=O)NC(=O)NC4=O)cc2)c2ccccc2n1 (stereo not drawn) | > 4.5 µM | > 6.37 µM | 50 µM | 0.044 µM | 12% | > 3.33 µM | > 4.04 µM | 3.53 µM |
| Cc1cc(COc2ccc(C(=O)NCC3(C4CCN(C(C)C)CC4)C(=O)NC(=O)NC3=O)cc2)c2ccccc2n1 | > 4.5 µM | > 6.37 µM | > 50 µM | 0.052 µM | 21% | > 3.33 µM | > 6.02 µM |  |
| Cc1cc(COc2ccc(C(=O)NCC3(N4CCN(C(=O)C(C)(C)C)CC4)C(=O)NC(=O)NC3=O)cc2)c2ccccc2n1 | > 4.5 µM | > 6.37 µM | 38 µM | 0.029 µM | 7% | 0.02 µM | 0.05 µM |  |
| Cc1cc(COc2ccc(C3(C)C(=O)NC(=O)NC3=O)cc2)c2ccccc2n1 |  |  |  | 1.03 µM |  |  |  |  |
| Cc1cc(COc2ccc(C(=O)NCC3(C4CCN(S(C)(=O)=O)CC4)C(=O)NC(=O)NC3=O)cc2)c2ccccc2n1 | > 4.5 µM | > 6.37 µM | > 50 µM | 0.029 µM | 36% | > 3.33 µM | > 6.02 µM |  |
| Cc1cc(COc2ccc(CCCC3(C)C(=O)NC(=O)NC3=O)cc2)c2ccccc2n1 |  |  |  | > 100 µM |  |  |  |  |
| Cc1cc(COc2ccc(/C=C/CC3(C)C(=O)NC(=O)NC3=O)cc2)c2ccccc2n1 |  |  |  | 11 µM |  |  |  |  |
| Cc1cc(COc2ccc(CC(=O)NCC3(C)C(=O)NC(=O)NC3=O)cc2)c2ccccc2n1 |  |  |  | > 100 µM |  |  |  |  |
| Cc1cc(COc2ccc(NC(=O)CC3(C)C(=O)NC(=O)NC3=O)cc2)c2ccccc2n1 |  |  |  | 12 µM |  |  |  |  |
| Cc1cc(COc2ccc(CC3(C)C(=O)NC(=O)NC3=O)cc2)c2ccccc2n1 |  |  |  | 2.2 µM |  |  |  |  |
| Cc1cc(COc2ccc(C(=O)NCC3(Cc4ccccc4)C(=O)NC(=O)NC3=O)cc2)c2ccccc2n1 | 3.69 µM | > 6.37 µM | > 50 µM | 0.018 µM | 34% | 0.37 µM | 0.39 µM |  |

| Structure (SMILES) | Ki [1] | Ki [2] | IC50 [3] | IC50 [4] | inhibition [5] | Ki [6] | Ki [7] | Ki [8] |
| --- | --- | --- | --- | --- | --- | --- | --- | --- |
| Cc1cc(COc2ccc(C(=O)NCC3(N4CCN(Cc5ccccc5)CC4)C(=O)NC(=O)NC3=O)cc2)c2ccccc2n1 | > 4.5 µM | > 6.37 µM | > 50 µM | 0.014 µM | 22% | 2.7 µM | 4.1 µM |  |
| Cc1cc(COc2ccc(CCC3(C)C(=O)NC(=O)NC3=O)cc2)c2ccccc2n1 |  |  |  | 49 µM |  |  |  |  |
| Cc1cc(COc2ccc(C(=O)NCC3(N4CCN(S(C)(=O)=O)CC4)C(=O)NC(=O)NC3=O)cc2)c2ccccc2n1 | > 4.5 µM | > 6.37 µM | > 50 µM | 0.002 µM | 11% | 2.17 µM | 1.02 µM |  |
| Cc1cc(COc2ccc(C(=O)CCC3(C)C(=O)NC(=O)NC3=O)cc2)c2ccccc2n1 |  |  |  | 0.8 µM |  |  |  |  |
| Cc1cc(COc2ccc(C(=O)NC3CN(S(C)(=O)=O)CC34C(=O)NC(=O)NC4=O)cc2)c2ccccc2n1 (stereo not drawn) | > 4.5 µM | > 6.37 µM | 12.6 µM | 0.036 µM | 26% | > 3.33 µM | 1.29 µM | 3.72 µM |
| CC(=O)N1CCN(C2(CNC(=O)c3ccc(OCc4cc(C)nc5ccccc45)cc3)C(=O)NC(=O)NC2=O)CC1 | > 4.5 µM | > 6.37 µM | > 50 µM | 0.005 µM | 21% | > 3.33 µM | > 6.02 µM |  |
| CCC1(CNC(=O)c2ccc(OCc3cc(C)nc4ccccc34)cc2)C(=O)NC(=O)NC1=O | > 4.5 µM | > 6.37 µM | > 50 µM | 0.016 µM | 18% | 0.2 µM | 0.21 µM |  |
| Cc1cc(COc2ccc(C(=O)NC3CCCC34C(=O)NC(=O)NC4=O)cc2)c2ccccc2n1 (stereo not drawn) |  |  | > 50 µM | 0.024 µM | 0% | > 3.33 µM |  |  |
| Cc1cc(COc2ccc(C(=O)NC(c3ccncc3)C3(C)C(=O)NC(=O)NC3=O)cc2)c2ccccc2n1 (stereo not drawn) |  |  |  | 2.36 µM |  |  |  |  |
| Cc1cc(COc2ccc(C(=O)NCC3(C4CCN(C)CC4)C(=O)NC(=O)NC3=O)cc2)c2ccccc2n1 | > 4.5 µM | > 6.37 µM | > 50 µM | 0.057 µM | 15% | > 3.33 µM | > 6.02 µM |  |
| CC(=O)N1CC(NC(=O)c2ccc(OCc3cc(C)nc4ccccc34)cc2)C2(C1)C(=O)NC(=O)NC2=O (stereo not drawn) | > 4.5 µM | > 6.37 µM | 14 µM | 0.055 µM | 44% | > 3.33 µM | 0.58 µM | 3.95 µM |
| Cc1cc(COc2ccc(C(=O)NCC3(C4CCN(C5CCOCC5)CC4)C(=O)NC(=O)NC3=O)cc2)c2ccccc2n1 | > 4.5 µM | > 6.37 µM | > 50 µM | 0.031 µM | 5% | > 3.33 µM | > 6.02 µM |  |
| Cc1cc(COc2ccc(OC3(C)C(=O)NC(=O)NC3=O)cc2)c2ccccc2n1 |  |  |  | 1.3 µM |  |  |  |  |
| Cc1cc(COc2ccc(C(=O)NCC3(C4CCN(C(=O)C(C)(C)C)CC4)C(=O)NC(=O)NC3=O)cc2)c2ccccc2n1 | > 4.5 µM | > 6.37 µM | 39 µM | 0.013 µM | 10% | > 3.33 µM | > 6.02 µM |  |
| Cc1cc(COc2ccc(C(=O)NC3CN(C(=O)C(C)(C)C)CC34C(=O)NC(=O)NC4=O)cc2)c2ccccc2n1 (stereo not drawn) | > 4.5 µM | > 6.37 µM | > 50 µM | 0.111 µM | 53% | > 3.33 µM | > 6.02 µM |  |
| Cc1cc(COc2ccc(C(=O)NC3CN(C(=O)OC(C)(C)C)CC34C(=O)NC(=O)NC4=O)cc2)c2ccccc2n1 (stereo not drawn) | > 4.5 µM | > 6.37 µM | 14 µM | 0.128 µM | 44% | > 3.33 µM | 1.03 µM | > 5.21 µM |
| Cc1cc(COc2ccc(C(=O)NCC3(N4CCN(C(C)C)CC4)C(=O)NC(=O)NC3=O)cc2)c2ccccc2n1 | > 4.5 µM | > 6.37 µM | > 50 µM | 0.007 µM | 20% | > 3.33 µM | > 6.02 µM |  |
| Cc1cc(COc2ccc(C(=O)NC3CCCCC34C(=O)NC(=O)NC4=O)cc2)c2ccccc2n1 (stereo not drawn) |  |  |  | 0.138 µM | 29% | 0.11 µM |  |  |
| Cc1cc(COc2ccc(C(=O)NCC3(NC(=O)OC(C)(C)C)C(=O)NC(=O)NC3=O)cc2)c2ccccc2n1 | > 4.5 µM | > 6.37 µM | > 50 µM | 0.013 µM | 16% | > 3.33 µM | > 6.02 µM |  |
